Data from ChEMBL document CHEMBL1133853, “Cyclopenta[g]quinazoline-based antifolates: the effect of the chirality at the 6-position on the inhibition of thymidylate synthase (TS)” (Bioorg Med Chem Lett, 2001).

target: Thymidylate synthase (Mus musculus, UniProt P07607); assay: Tested for inhibitory activity against thymidylate synthase of L1210 cells; format: cell-based; details: read-out: Ki app
Sequence (P07607 whole entry): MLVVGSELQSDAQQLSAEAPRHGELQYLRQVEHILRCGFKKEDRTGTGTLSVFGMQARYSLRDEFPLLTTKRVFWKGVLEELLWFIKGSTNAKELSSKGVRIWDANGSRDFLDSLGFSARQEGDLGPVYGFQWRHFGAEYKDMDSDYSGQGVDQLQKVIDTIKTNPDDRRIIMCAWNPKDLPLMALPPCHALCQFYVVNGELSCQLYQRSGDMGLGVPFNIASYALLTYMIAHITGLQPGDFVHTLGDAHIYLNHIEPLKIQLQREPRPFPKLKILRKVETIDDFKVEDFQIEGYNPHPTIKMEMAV

Ki [nM] | SMILES
0.2 | C#CCN(c1ccc(C(=O)N[C@@H](CCC(=O)NC(CCC(=O)O)c2nnn[nH]2)C(=O)O)cc1)C1CCc2cc3nc(C)nc(O)c3cc21 (stereo partly specified)
1200 | C#CCN(c1ccc(C(=O)N[C@@H](CCCS(=O)(=O)c2nc[nH]n2)C(=O)O)cc1)[C@@H]1CCc2cc3nc(C)nc(O)c3cc21
0.71 | C#CCN(c1ccc(C(=O)N[C@@H](CCCS(=O)(=O)c2nc[nH]n2)C(=O)O)cc1)[C@H]1CCc2cc3nc(C)nc(O)c3cc21
2.1 | C#CCN(c1ccc(C(=O)N[C@@H](CCC(=O)N[C@H](CCC(=O)O)c2nnn[nH]2)C(=O)O)cc1)[C@@H]1CCc2cc3nc(C)[nH]c(=O)c3cc21

SMILES | Ki [nM]
C#CCN(c1ccc(C(=O)N[C@@H](CCC(=O)N[C@H](CCC(=O)O)C(=O)O)C(=O)O)cc1)[C@@H]1CCc2cc3nc(C)[nH]c(=O)c3cc21 | 3.5
C#CCN(c1ccc(C(=O)N[C@@H](CCC(=O)NC(CCC(=O)O)C(=O)O)C(=O)O)cc1)C1CCc2cc3nc(C)nc(O)c3cc21 (stereo partly specified) | 0.42
